Test results from patent publication US20160251403A1, “PEPTIDE COMBINATIONS AND USES THEREOF IN TREATING DUST MITE ALLERGY” (ALK-ABELLO A/S, priority 2013, published 2016).
No end group written: not given here.

How the values were obtained:
DRB1_0101 = DRB1_0101 (Homo sapiens, UniProt P01903+P01911, A100R/D57E/F55L/F60I/F76Y/I96L/L162R/M171V/P40L/Q125E/R42F/V115G/Y59C); experiment: Competitive MHC class II binding assay, DRB1_0101;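 note: competition against a radiolabeled probe peptide (0.1–1 nM) for purified HLA class II protein over 2–4 days, bound counts read after antibody capture, six competitor levels across 100,000-fold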
DRB1_0401 = DRB1_0401 (Homo sapiens, UniProt P01903+P01911, A100K/A169T/F76Y/I96L/K127E/L162R/M171V/N62H/P40V/Q125Y/R42H/S133A/S149N/S66Y/V115G/V209L/W38E); experiment: Competitive MHC class II binding assay, DRB1_0401
DRB1_0405 = DRB1_0405 (Homo sapiens, UniProt P01903+P01911, A100R/A169T/D86S/F76Y/I96L/K127E/L162R/M171V/N62H/P40V/Q125Y/R42H/S133A/S149N/S66Y/V115G/V209L/W38E); experiment: Competitive MHC class II binding assay, DRB1_0405
DRB1_0701 = DRB1_0701 (Homo sapiens, UniProt P01903+P01911, A100R/A102G/A103Q/D57E/D86V/E43K/F76Y/K127E/L162R/M171V/P40G/Q125H/Q99D/R33Q/R42Y/R54Q/S133A/S66F/T210M/V115G/Y107V/Y59L/Y89S); experiment: Competitive MHC class II binding assay, DRB1_0701;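 note: displacement of a radiolabeled reference peptide from purified HLA class II protein, with complex-bound radioactivity counted after 2–4 days of incubation and six concentrations spanning a 100,000-fold range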
DRB1_0802 = DRB1_0802 (Homo sapiens, UniProt P01903+P01911, A100R/A103L/A169T/F76Y/H45Y/I96F/K41T/L162R/M171V/P40S/Q125H/Q178H/Q39Y/Q99D/R218S/R42G/S66Y/V115G/W38E); experiment: Competitive MHC class II binding assay, DRB1_0802
DRB1_0901 = DRB1_0901 (Homo sapiens, UniProt P01903+P01911, A100R/A103E/D57H/D86V/F55Y/F60I/F76Y/I96F/K127E/L162R/M171V/P40D/Q125H/Q99R/R33Q/R42F/S133A/S66N/T210M/V115G/W38K/Y107V/Y59G/Y89S); experiment: Competitive MHC class II binding assay, DRB1_0901;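 note: displacement of a radiolabeled probe peptide from purified HLA class II protein, bound counts read after two to four days incubation, six concentrations spanning 100,000-fold, unlabeled probe as reference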
DRB1_1101 = DRB1_1101 (Homo sapiens, UniProt P01903+P01911, A100R/A169T/A87E/I96F/K41T/L162R/M171V/P40S/Q125H/Q178H/Q39Y/Q99D/R42S/S66Y/T262R/V115G/W38E); experiment: Competitive MHC class II binding assay, DRB1_1101
DRB1_1201 = DRB1_1201 (Homo sapiens, UniProt P01903+P01911, A100R/A169T/D57E/D86V/F55L/H45Y/K41T/L162R/M171V/P40S/Q125H/Q178H/Q39Y/Q99D/R42G/S66L/T262R/V114A/V67L/W38E/Y59H/Y61H/Y89S); experiment: Competitive MHC class II binding assay, DRB1_1201
DRB3_0202 = DRB3_0202 (Homo sapiens, UniProt P01903+P79483, A212P/D57E/F66Y/L67A/R103Q/R218S/R40L/S89Y/T80R/V86D/Y55F/Y59H); experiment: Competitive MHC class II binding assay, DRB3_0202
DRB5_0101 = DRB5_0101 (Homo sapiens, UniProt P01903+Q30154); experiment: Competitive MHC class II binding assay, DRB5_0101
DPA10103-DPB10301 = molecular target: T1, DPA10103-DPB10301 (Homo sapiens, UniProt P04440+P20036, A65V/A84D/A85E/E86D/F38Y/G113D/G114E/G40L/I94L/L37V/M105V/M116V/P115A/R125K/T199I); experiment: Competitive MHC class II binding assay, DPA10103-DPB10301
T1 sequence (P20036 29-260): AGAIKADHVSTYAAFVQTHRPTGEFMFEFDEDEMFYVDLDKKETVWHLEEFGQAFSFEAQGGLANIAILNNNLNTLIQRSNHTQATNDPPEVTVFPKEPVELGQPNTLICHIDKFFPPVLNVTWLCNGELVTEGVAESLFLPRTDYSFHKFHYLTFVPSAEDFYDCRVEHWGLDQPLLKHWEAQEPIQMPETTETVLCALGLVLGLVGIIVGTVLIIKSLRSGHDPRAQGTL
T1 sequence (P04440 30-258 L37V/F38Y/G40L/A65V/A84D/A85E/E86D/I94L/M105V/G113D/G114E/P115A/M116V/R125K/T199I/V234M): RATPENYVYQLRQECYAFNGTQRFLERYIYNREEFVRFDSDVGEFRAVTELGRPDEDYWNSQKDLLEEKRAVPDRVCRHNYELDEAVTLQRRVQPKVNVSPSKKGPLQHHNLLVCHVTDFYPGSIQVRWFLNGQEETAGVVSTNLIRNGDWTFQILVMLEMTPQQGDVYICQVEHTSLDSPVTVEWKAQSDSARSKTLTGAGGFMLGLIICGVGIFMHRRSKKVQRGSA

DRB1_0301 = DRB1_0301 (Homo sapiens, UniProt P01903+P01911, A100K/A102G/A103R/A169T/F55Y/I96L/K41T/L162R/M171V/P40S/Q125H/Q178H/Q39Y/R42S/S66N/T106N/T262R/W38E/Y61H); experiment: Competitive MHC class II binding assay, DRB1_0301
DQA10101-DQB10501 = DQA10101-DQB10501 (Homo sapiens, UniProt P01909+P01920, A157S/A45G/A70V/C70R/D89V/E106S/E118A/E183D/E77G/F83G/G63E/H151Q/H199R/H252R/H253Q/I129T/I235V/I88M/INS77G/K197Q/L107V/L117V/L119Y/L178F/L71W/L74F/L85Q/L91A/L98M/M46L/N214S/P87R/Q116E/Q256R/Q57E/Q76K/R102G/R240Q/R75S/R78G/S102Y/S185I/S41F/S97I/T103A/T109R/T121G/T122I/T172A/T86R/V148I/V68A/V73E/Y34C/Y58G/Y62H); experiment: Competitive MHC class II binding assay, DQA10101-DQB10501; settings: positive binding at cutoff 1000 nM; read-out: HLA-DQA10101-DQB10501
DRB1_1501 = DRB1_1501 (Homo sapiens, UniProt P01903+P01911); experiment: Competitive MHC class II binding assay, DRB1_1501
DPA10103-DPB10201 = molecular target: T2, DPA10103-DPB10201 (Homo sapiens, UniProt P04440+P20036, A65V/A84D/A85E/K98E); experiment: Competitive MHC class II binding assay, DPA10103-DPB10201
T2 sequence (P20036 29-260): T1 sequence (P20036 29-260)
T2 sequence (P04440 30-258 A65V/A84D/A85E/K98E): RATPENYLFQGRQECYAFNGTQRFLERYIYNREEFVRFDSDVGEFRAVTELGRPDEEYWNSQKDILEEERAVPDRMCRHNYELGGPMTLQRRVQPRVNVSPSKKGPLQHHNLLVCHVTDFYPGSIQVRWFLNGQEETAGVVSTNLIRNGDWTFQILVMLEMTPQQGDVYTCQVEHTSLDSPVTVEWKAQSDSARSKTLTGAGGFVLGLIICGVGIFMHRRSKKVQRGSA

DRB1_1302 = DRB1_1302 (Homo sapiens, UniProt P01903+P01911, A100E/A169T/K41T/L162R/M171V/P40S/Q125H/Q178H/Q39Y/Q99D/R42S/S66N/T262R/V115G/W38E/Y61H); experiment: Competitive MHC class II binding assay, DRB1_1302;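 note: purified HLA class II protein incubated two to four days with a radiolabeled reference binder and test peptide at six concentrations over a 100,000-fold range, complex-bound radioactivity counted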
DRB3_0101 = DRB3_0101 (Homo sapiens, UniProt P01903+P79483); experiment: Competitive MHC class II binding assay, DRB3_0101
DRB4_0101 = DRB4_0101 (Homo sapiens, UniProt P01903+P13762, G164S); experiment: Competitive MHC class II binding assay, DRB4_0101
[1] = Solubility of peptides in aqueous solutions at different pH (visual inspection, OD, HPLC); assay type: physicochemical; settings: Table 11a; evaluated by visual inspection
Excerpt: This example describes modifications of parent peptides to improve the aqueous solubility, in particular to increase the solubility in an aqueous solution having pH in a physiologically acceptable range, e.g. from 6 to 8. Solubility is closely related to the ratio between hydrophilic and hydrophobic amino acid residues and the net charge state of the peptide. Peptides have zero net charge at pH=pI, and would be expected to show the lowest solubility at this pH. […] The solubility of these peptides was increased at pH values outside the physiological range (data not shown).
Peptides were tested for their ability to dissolve in aqueous solutions at different pH values. In short, each of the peptides were dissolved in water (pH about 5-6), hydrochloride solution at pH 2 (10 mM HCl), acetate buffer with pH 5 (20 mM acetate and 140 mM sodium chloride), phosphate buffer with pH 7 (20 mM phosphate and 140 mM sodium chloride) or bistrispropate buffer with pH 9 (20 mM bitrispropane and 140 mM sodium chloride, respectively, to produce a final molar concentration of the peptide of about 0.25 mM or 1 mM. Optionally, about 20% DMSO may be part of the solution. For comparison reasons, peptides were also dissolved in acetonitrile or DMSO. The solutions were inspected visually before and after centrifugation for turbidity, presence of particles/aggregates. In addition, presence of turbidity/particles/aggregates were detected by optical density (OD), but might also be detected by size-exclusion chromatography. Sub-visual particles may also be detected by dynamic light scattering (DLS) analysis. The solubility and stability of each peptide were also investigated using HPLC, e.g. RP-HPLC. For example, each of the solutions were injected onto the HPLC and the peak height or peak area of each of the peptides were compared to the corresponding peptide of a chromatogram of peptides dissolved in acetonitrile or DMSO—as peptides were assumed to be fully dissolved and stable in these solvents.

DQA10501-DQB10201 = DQA10501-DQB10201 (Homo sapiens, UniProt P01909+P01920, A45G/A70V/D89A/E106A/E77G/E98D/H199R/L107V/N214S/P84L/P87L/T103K/T109R/T172A/T60S/V78E/V99I/Y58L/Y62S/Y69I/Y79F); experiment: Competitive MHC class II binding assay, DQA10501-DQB10201

Row | Sequence | IC50 (DRB1_0101) | IC50 (DRB1_0401) | IC50 (DRB1_0405) | IC50 (DRB1_0701) | IC50 (DRB1_0802) | IC50 (DRB1_0901) | IC50 (DRB1_1101) | IC50 (DRB1_1201) | IC50 (DRB3_0202) | IC50 (DRB5_0101) | IC50 (DPA10103-DPB10301) | IC50 (DRB1_0301) | IC50 (DQA10101-DQB10501) | IC50 (DRB1_1501) | IC50 (DPA10103-DPB10201) | IC50 (DRB1_1302) | IC50 (DRB3_0101) | IC50 (DRB4_0101) | Solubility at pH 7 [1] | IC50 (DQA10501-DQB10201)
1 | QESYYRYVAREQSSRR [pep-122] | < 1000 nM | < 1000 nM | < 1000 nM | < 1000 nM | < 1000 nM | < 1000 nM | < 1000 nM | < 1000 nM | < 1000 nM | < 1000 nM | < 1000 nM | – | – | – | – | – | – | – | – | –
2 | QESYYRYVAREQSSRRPNAQ [pep-050] | – | < 1000 nM | – | – | – | – | < 1000 nM | – | – | < 1000 nM | < 1000 nM | < 1000 nM | – | – | – | – | – | – | – | –
3 | ATESAYLAYRNTSLD [pep-022] | < 1000 nM | < 1000 nM | < 1000 nM | < 1000 nM | < 1000 nM | < 1000 nM | – | – | – | – | – | – | < 1000 nM | < 1000 nM | – | – | – | – | – | –
4 | VQESYYRYVAREQSSRRPNAQ [pep-124] | – | – | – | < 1000 nM | < 1000 nM | – | < 1000 nM | – | – | < 1000 nM | < 1000 nM | – | – | – | < 1000 nM | – | – | – | – | –
5 | KSENVVVTVKLVGDNGVLAS [pep-109] | – | < 1000 nM | – | – | < 1000 nM | – | < 1000 nM | – | – | – | – | < 1000 nM | – | – | – | < 1000 nM | < 1000 nM | < 1000 nM | – | –
6 | KGQQYDIKYTWNVPKIA [pep-126] | < 1000 nM | – | – | < 1000 nM | < 1000 nM | < 1000 nM | – | – | < 1000 nM | < 1000 nM | < 1000 nM | – | < 1000 nM | – | – | < 1000 nM | – | – | Clear | –
7 | HRGKPFQLEAVFEANQNTKT [pep-091] | < 1000 nM | – | < 1000 nM | – | < 1000 nM | < 1000 nM | – | – | < 1000 nM | – | – | – | < 1000 nM | – | < 1000 nM | < 1000 nM | – | < 1000 nM | – | < 1000 nM
8 | DLRQMRTVTPIRMQGGSGS [HDM203B, reference compound] | < 1000 nM | < 1000 nM | < 1000 nM | < 1000 nM | < 1000 nM | < 1000 nM | < 1000 nM | < 1000 nM | – | < 1000 nM | < 1000 nM | < 1000 nM | – | < 1000 nM | < 1000 nM | < 1000 nM | – | < 1000 nM | – | –
